Data as given in PMC12670405, “Second-Generation AURKA-Targeting PROTACs: Structural Optimization toward in Vivo Degradation in Neuroblastoma” (Journal of Medicinal Chemistry, 2025).
Like-named read-outs stand apart in the source and are kept apart here.

Assays:
[1] = Metabolic stability in mouse liver microsomes (MLM); assay type: in vitro ADME, CD-1 mouse; details: CD-1
Experimental: (§1) Plasma and metabolic stability tests were performed by Eurofins Discovery. For the plasma stability assay, test compounds were incubated in CD-1 mouse plasma for 0, 0.5, 1, 1.5, and 2 h at 37 °C at a concentration of 1 μM. For the metabolic stability assay, test compounds were incubated at 37 °C in either (1) CD-1 mouse liver microsomes (MLM) (0.1 mg/mL) at a concentration of 0.1 μM for 0, 15, 30, 45, and 60 min or (2) CD-1 mouse hepatocytes (MH) (0.7 million viable cells/mL) at a concentration of 1 μM for 0, 0.5, 1, 1.5, and 2 h. At the respective time points, acetonitrile was added to the incubation mixture followed by centrifugation. Samples were analyzed by HPLC-MS/MS and peak areas were recorded for each analyte. Compound stability, expressed as the percentage of parent compound remaining, was calculated by comparing the peak area of the compound at each time point relative to that of the 0h time point. Percentage compound remaining is plotted as a function of time as a logarithmic curve. Half-life (t 1/2) is estimated from the slope of the initial linear range of the curve, assuming first-order kinetics. […] Both plasma and metabolic assay experiments were performed once with 2 replicate samples each.

Plasma stability assay = assay type: in vitro ADME, CD-1 mouse; details: for half-life at 1 μM: read-out: plasma t1/2
Experimental: as §1

AURKA = target: T1, AURKA (Homo sapiens, UniProt O14965); experiment: AURKA degradation, Simple Western; assay type: cell-based; parameters: Representative Western blot showing levels of endogenous proteins MDR1, MYCN, AURKA, and CRBN in untreated cell lines; endogenous in cells; host or cells: NGP, IMR-32, SJNB-8, SK-N-BE(2)-C, SK-N-SH, SK-N-AS, SJNB-1, RPE, HEK293T; details: for pDC50: AURKA degradation; for DC50: read-out: AURKA DC50;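 on AURKA Degradation 24h @1000nM: measured in NGP neuroblastoma cells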;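 on AURKA Degradation 24h @100nM: measured in NGP neuroblastoma cells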
T1 sequence (O14965 1-403): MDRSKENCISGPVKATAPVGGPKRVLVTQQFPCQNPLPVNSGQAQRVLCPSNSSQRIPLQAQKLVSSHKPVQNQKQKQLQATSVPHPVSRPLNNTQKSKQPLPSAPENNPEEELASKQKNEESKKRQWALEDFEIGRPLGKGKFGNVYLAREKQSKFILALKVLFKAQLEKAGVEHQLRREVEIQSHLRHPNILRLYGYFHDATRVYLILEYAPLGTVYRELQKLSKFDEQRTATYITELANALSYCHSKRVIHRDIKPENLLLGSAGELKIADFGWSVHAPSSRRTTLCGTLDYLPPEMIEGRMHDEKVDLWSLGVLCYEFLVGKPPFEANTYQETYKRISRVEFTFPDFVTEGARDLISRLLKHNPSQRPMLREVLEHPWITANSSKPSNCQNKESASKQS
Experimental: Cells were seeded in T-25 flasks at different densities ranging from 1 to 2 million cells per flask and allowed to adhere for 1–2 days. In experiments involving compound treatment, this was done by medium replacement containing the compound(s) of interest in their corresponding concentrations. In competition binding experiments, cells were first pretreated with an excess of MK-5108, thalidomide or MG-132 for 1 h by shaking gently at room temperature prior to addition of SK4454 or SK5527. All samples were normalized to contain the same percentage of DMSO as the negative DMSO controls. Cells were harvested on ice at their respective time points by scraping, washed with ice-cold PBS to collect remaining cells, and centrifuged (2500 rpm, 4 °C). A second washing and centrifugation step was performed prior to collection of the final cell pellets which were then snap-frozen in liquid nitrogen and kept frozen at −80 °C until further processing. Lysis of cell pellets occurred in cold RIPA buffer (0.5% w/v Sodium Deoxycholate, 150 mM NaCl, 50 mM TrisHCl pH 7.5, 0.1% w/v SDS, 1% w/v NP-40) supplemented with protease and phosphatase inhibitors (Roche, #11836145001, #04906845001) by rotating gently at 4 °C for 1h, followed by a centrifugation step for 10 min (10,000 rpm, 4 °C). The supernatant was collected and concentrations of the obtained protein lysates were measured using the Pierce BCA Protein Assay Kit (Thermo Fisher Scientific, #23227).
Simple Western analyses were performed with the Wes instrument (Bio-Techne) using the 12–230 kDa Wes Separation module and the EZ standard pack reagent 1 (Biotechne, #SM-W001, #PS-ST01EZ-8) following the manufacturer’s protocol. Protein lysates were loaded at 0.8 μg/μL under denaturing conditions (0.2 μg/μL for MYCN detection). Chemiluminescence peaks were generated by the Compass Software (Bio-Techne) and the area under the peaks calculated using the Gaussian fit method. Per lane, quantified data were always normalized to that of the loading control (Vinculin) prior to calculating fold changes relative to the negative DMSO control. Mean fold changes are calculated from 3 individual experiments. A list of the primary and secondary antibodies used can be found in the Supporting Information (Supplementary Table S7).
Graphs were generated using GraphPad Prism Software (version 10.1.2) or RStudio (R-4.3.2). All dose–response curves were computed on GraphPad Prism using the Variable Slope (four parameters) equation. Absolute half-maximal degradation (DC50), growth inhibitory (GI50) and enzymatic inhibitory (IC50) concentrations, as well as inhibition constants (Ki) were derived from dose–response curves via interpolation. Statistical tests were performed on GraphPad Prism and detailed in the figure legends. Unless otherwise stated, “n” in the figure legends indicates the number of independent experiments conducted at different times.

NGP = experiment: IncuCyte live-cell imaging, antiproliferative effect; assay type: cell-based; details: Homo sapiens, 72 h
Description: Human neuroblastoma cell lines NGP, IMR-32, SJNB-8, SK-N-BE(2)-C, SJNB-1, SK-N-SH and SK-N-AS, as well as benign immortalized cell lines RPE and HEK293T were either bought commercially or obtained through research laboratories. […] Screening for mycoplasma contamination occurred routinely on the cells. Human neuroblastoma cell lines SH-SY5Y_shABCB1 & SH-SY5Y_shNTC were generated by transduction with pLKO.1-ABCB1_TRCN0000059683 shRNA (Sigma MISSION SHCLND) or pLKO.1-puro NT shRNA (Sigma MISSION SHC002) vectors respectively (Supplementary Table S6), packaged using Lenti-X293T (Clontech). Transduced cells were selected with 2 μg/mL puromycin. These cells were cultured in DMEM 4.5 g/L D-Glucose, L-Glutamine and 110 mg/L Sodium Pyruvate (Gibco, #11995065) supplemented with 10% fetal bovine serum, 1× Antibiotic-Antimycotic solution (Sigma-Aldrich, #A5955) and 1× MEM nonessential amino acids (Sigma-Aldrich, #M7145). Incubation of all cells occurred at 37 °C and 5% CO2.
Neuroblastoma cells were seeded in 384-well plates at different densities ranging from 1200 to 5000 cells/well and allowed to adhere overnight. RPE and HEK293T were seeded at 200 and 600 cells/well, respectively. Compound treatment was performed using the D300e Digital Dispenser (Tecan) in duplicate or triplicate and cell confluency was monitored over time using the IncuCyte Live-cell imaging system (Sartorius). […] Mean normalized confluences were calculated from 3 individual experiments.
All dose–response curves were computed on GraphPad Prism using the Variable Slope (four parameters) equation. Absolute half-maximal degradation (DC50), growth inhibitory (GI50) and enzymatic inhibitory (IC50) concentrations, as well as inhibition constants (Ki) were derived from dose–response curves via interpolation. Statistical tests were performed on GraphPad Prism and detailed in the figure legends. Unless otherwise stated, “n” in the figure legends indicates the number of independent experiments conducted at different times.

[2] = Metabolic stability in mouse hepatocytes (MH); assay type: in vitro ADME, CD-1 mouse; details: CD-1
Experimental: as §1

| microsomal CLint at 0.1 μM [1] | half-life at 1 μM (Plasma stability assay; CD-1, mouse, plasma) | AURKA Degradation 24h @100nM (AURKA) | AURKA Degradation 24h @1000nM (AURKA) | half-life at 1 μM (Plasma stability assay; CD-1 mouse plasma, 1 μM, 37 °C) | pDC50 (AURKA) | Dmax (AURKA; NGP, 24 h treatment) | DC50 (AURKA) | plasma t1/2 (Plasma stability assay; plasma) | DC50 (AURKA; NGP, 24 h treatment) | hepatocyte CLint at 1 μM [2] | SMILES | GI50 (NGP; read-out: GI50 72h, 72h) | GI50 (NGP; read-out: pGI50 (converted)) | AURKA degradation activity (in words) (AURKA; NGP, 24 h treatment) |
| --- | --- | --- | --- | --- | --- | --- | --- | --- | --- | --- | --- | --- | --- | --- |
| 1480 µL/min/mg | > 2 h | 72 | 66 | – | – | – | – | – | – | – | O=C1CCC(N2C(=O)c3cccc(N4CCN(CCOCCOCCNC(=O)[C@]5(Cc6cccc(Nc7nccs7)n6)CC[C@@H](Oc6cccc(Cl)c6F)CC5)CC4)c3C2=O)C(=O)N1 (stereo partly drawn) [PROTAC 1] | 63 nM | 63.1 nM | – |
| 456 µL/min/mg | – | 80 | 77 | 1.32 h | 8,06 | 81% | 8.7 nM | – | – | – | O=C1CCC(N2C(=O)c3cccc(OCCOCCOCCN4CCN(C(=O)[C@]5(Cc6cccc(Nc7nccs7)n6)CC[C@@H](Oc6cccc(Cl)c6F)CC5)CC4)c3C2=O)C(=O)N1 (stereo partly drawn) [PROTAC 3] | 42 nM | 41.7 nM | – |
| 656 µL/min/mg | – | 85 | 93 | > 2 h | 8,32 | 97% | 4.8 nM | > 2 h | 5 nM | – | O=C1CCC(N2C(=O)c3ccc(N4CCN(CCNC(=O)[C@]5(Cc6cccc(Nc7nccs7)n6)CC[C@@H](Oc6cccc(Cl)c6F)CC5)CC4)cc3C2=O)C(=O)N1 (stereo partly drawn) [PROTAC 4] | 44 nM | 44.7 nM | – |
| 739 µL/min/mg | – | 61 | 73 | > 2 h | 7,36 | 76% | 43.8 nM | > 2 h | – | – | O=C1CCC(Nc2ccc(N3CCN(C(=O)CNC(=O)[C@]4(Cc5cccc(Nc6nccs6)n5)CC[C@@H](Oc5cccc(Cl)c5F)CC4)CC3)cc2)C(=O)N1 (stereo partly drawn) [PROTAC 14] | 46 nM | 45.7 nM | significantly stronger degradation activity |
| 693 µL/min/mg | > 2 h | 86 | 87 | – | – | – | – | – | – | < 4.1 µL/min/1e6 cells | O=C1CCN(Cc2ccc(C3CCN(C4CN(C(=O)[C@]5(Cc6cccc(Nc7nccs7)n6)CC[C@@H](Oc6cccc(Cl)c6F)CC5)C4)CC3)nc2)C(=O)N1 [PROTAC 22] | 46 nM | 46.8 nM | – |
| 1060 µL/min/mg | > 2 h | 88 | 93 | – | – | – | – | – | – | – | O=C1CCN(c2ccc(N3CCN(CC4(F)CCN(C(=O)[C@]5(Cc6cccc(Nc7nccs7)n6)CC[C@@H](Oc6cccc(Cl)c6F)CC5)CC4)CC3)nc2)C(=O)N1 [PROTAC 27] | 46 nM | 46.8 nM | – |
| – | – | 83 | 91 | – | – | – | – | – | – | – | Cc1cc(Nc2ccc(F)c(CC3(C(=O)N4CCC(F)(C(=O)N5CCN(c6ccc(N7CCC(=O)NC7=O)cn6)CC5)CC4)CCN(Cc4cccc(Cl)c4F)CC3)n2)n[nH]1 [PROTAC 34] | 84 nM | 83.2 nM | – |
| – | – | 62 | 69 | – | – | – | – | – | – | – | Cc1cc(Nc2ccc(F)c(CC3(C(=O)N4CC(N5CCC(c6ccc(N7CCC(=O)NC7=O)cn6)CC5)C4)CCN(Cc4cccc(Cl)c4F)CC3)n2)n[nH]1 [PROTAC 35] | 332 nM | 331 nM | – |
| – | – | 58 | 78 | – | – | – | – | – | – | – | Cc1cc(Nc2ccc(F)c(CC3(C(=O)N4CCC(CN5CCC(c6ccc(N7CCC(=O)NC7=O)cn6)CC5)CC4)CCN(Cc4cccc(Cl)c4F)CC3)n2)n[nH]1 [PROTAC 36] | 60 nM | 60.3 nM | – |
| – | – | 82 | 90 | – | – | – | – | – | – | – | Cc1cc(Nc2ccc(F)c(CC3(C(=O)N4CCC(F)(C(=O)N5CCC(c6ccc(N7CCC(=O)NC7=O)cn6)CC5)CC4)CCN(Cc4cccc(Cl)c4F)CC3)n2)n[nH]1 [PROTAC 38] | 146 nM | 145 nM | – |
| 1080 µL/min/mg | – | 81 | 75 | 1.18 h | 8,15 | 81% | 7 nM | – | – | – | O=C1CCC(N2C(=O)c3ccc(OCCOCCNC(=O)[C@]4(Cc5cccc(Nc6nccs6)n5)CC[C@@H](Oc5cccc(Cl)c5F)CC4)cc3C2=O)C(=O)N1 (stereo partly drawn) [SK3277, reference compound] | 52 nM | 52.5 nM | – |
